Assay [1] addresses T1, hOT-R (Homo sapiens, UniProt P30559).
T1 sequence (P30559 1-389): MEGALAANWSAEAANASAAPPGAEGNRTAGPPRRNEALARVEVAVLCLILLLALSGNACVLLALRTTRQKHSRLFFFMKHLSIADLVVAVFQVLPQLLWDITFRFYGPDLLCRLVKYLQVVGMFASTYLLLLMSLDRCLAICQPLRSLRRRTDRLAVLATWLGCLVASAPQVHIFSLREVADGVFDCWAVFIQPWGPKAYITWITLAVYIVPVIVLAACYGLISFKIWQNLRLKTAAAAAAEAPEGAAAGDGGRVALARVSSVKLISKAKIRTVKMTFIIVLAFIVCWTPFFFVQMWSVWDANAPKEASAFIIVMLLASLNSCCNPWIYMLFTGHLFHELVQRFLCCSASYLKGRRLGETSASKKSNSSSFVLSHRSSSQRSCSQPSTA
Briefly: In vitro binding assay (SPA), competition with [125I]-OVTA on membranes from HEK293EBNA cells expressing the hOT receptor. On the set-up: expressed in transfected cells; host or cells: HEK293EBNA. As to conditions: 0.2 nM [125I]-OVTA, read-out: Binding affinity human OT-R IC50. The protocol: a) In Vitro Binding Assay (SPA)
Membranes from HEK293EBNA cells expressing the hOT receptor were resuspended in buffer containing 50 mM Tris-HCl, pH 7.4,5 mM MgCl2 and 0.1% BSA (w/v). The membranes (2–4 μg) were mixed with 0.1 mg wheat-germ aglutinin (WGA) SPA bead (type A) and increasing concentrations of [^125I]-OVTA (for saturation binding experiments) or 0.2 nM [^125I]-OVTA (for competition binding experiments). Non specific binding was deter-mined in the presence of 1 μM Oxytocin. The total assay volume was 100 μl. The plates were incubated at room temperature for 30 min and counted on a Mibrobeta plate counter. The competition binding data were analysed using the iterative, nonlinear, curve-fitting program, Prism.
The binding affinities to the oxytocin receptor of the pyrrolidine derivatives claimed in the formula I were assessed using the above described in vitro biological assay. The values refer to the binding capacity of the example compounds according to formula I to the Oxytocin receptor. From the values shown in Table 1 it can be derived that said test compounds according to formula I do show a significant binding to the Oxytocin receptor.

The target of assay [2] is T1, hOT-R. Briefly: Functional assay No. 1: inhibition of oxytocin-induced Ca2+-mobilization by FLIPR. Format: cell-based. On the set-up: expressed in transfected cells; host or cells: HEK cells (CHO cells also mentioned). Conditions: oxytocin-induced intracellular Ca2+ mobilization, read-out: Inhibition of Ca^2+ mobilization, hOT-R IC50. The protocol:
c) Functional Assay No. 1: Inhibition of Ca^2+-Mobilization by FLIPR
Preparing the plates: FLIPR-plates were pre-coated with PLL 10 μg/ml+0.1% gelatine for 30 min up to 2 days at 37° C. (for HEK-cells). The cells were plated out into 96-well plates (60000 cells/well).
Labelling with fluo-4: 50 μg fluo-4 were dissolved in 20 μl pluronic acid (20% in DMSO). The dissolved fluo-4 was then diluted in 10 ml DMEM-F12 medium without FCS. The medium was removed from the plates, followed by one wash with DMEM-F12 medium. Now, 100 μl of the DMEM-F12 medium containing fluo-4 were added and the cells incubated for 1–1.5 h (CHO-cells), and 1.5–2 h (HEK-cells).
Buffer: 145 mM NaCl, 5 mM KCl, 1 mM MgCl2, 10 mM Hepes, 10 mM Glucose, EGTA. Adjust to pH 7.4.
Preparation of agonists and antagonists: A minimum of 80 μl/well of agonists and anta-gonists (5×) in the above buffer (1×) were prepared (96-well plates).
The activities of the pyrrolidine derivatives according to formula I were assessed using the above described in vitro biological assay. The values refer to the capacity of the example compounds according to formula I to effectively antagonize oxytocin-induced intracellular Ca^2+-mobilization mediated by the Oxytocin receptor.
(A change in cytosolic calcium serves as a functional read-out for many receptors and channels.)

Assay [3] deals with oxytocin-induced uterine contractions in the rat. Description: In vivo model for inhibition of uterine contractions (oxytocin-induced, anaesthetised DES-treated rats). As to conditions: intravenous, PEG400/saline 50:50, 5 ml/kg infusion. The protocol:
e) In Vivo Model for Inhibition of Uterine Contractions
Non-pregnant Charles River CD(SD) BR female rats (9–10 weeks old, 200–250 g) were treated at 18 and 24 hours before the experiment with 250 μg/kg, i.p. diethylstilbestrol (DES). For the assay, the animal was anaesthetised by urethane (1.75 g/kg, i.p.) and placed on an homeothermic operating table. The trachea was isolated and cannulated with a suitable polyethylene (PE) tubing. A midline incision at the hypogastrium level was made and one uterine horn exposed, its cephalic end cannulated with a PE240 tubing and, after filling the internal cavity with 0.2 ml of sterile physiological saline, connected to a “Gemini” amplifying/recording system via a P23ID Gould Statham pressure transducer. For the i.v. route of administration of the test compounds, one jugular vein was isolated and cannulated with a PE60 tubing connected to a butterfly needle to allow the administration by a dispensing syringe. In the case of intraduodenal administration of the test compounds, the duodenum was isolated and similarly cannulated through a small incision in its wall. One carotid artery was also isolated and cannulated with PE60 catheter and connected to a suitable syringe for blood sample collection (see below). After a stabilization period, the same dose of oxytocin was repeatedly injected intravenously at 30-min intervals. […] Further injections of the same dose of oxytocin were then made for a suitable time after treatment to assess inhibitory effects of the compounds under study. The contractile response of the uterus to oxytocin was quantified by measuring the intrauterine pressure and the number of contractions. The effect of the reference and test compounds were evaluated by comparing pre- and post-treatment pressure values. In addition, at 2, 30, 90 and 210 minutes after test compound administration, a 0.5-ml blood sample was withdrawn from the cannulated carotid artery of each experimental animal. Plasma was obtained by standard laboratory procedure and the resulting samples were stored at −20° C.
The activities of the pyrrolidine derivatives claimed in the formula I were assessed using the above described in vivo biological assay. The values refer to the capacity of the example compound according to formula I to effectively antagonize oxytocin-induced -uterine contractions in the rat.

Consider twelve compounds from patent publication US7211601B2, “Pharmaceutically active pyrrolidine derivatives” (Applied Research Systems Ars Holding N.V., priority 2000, dated 2007).

For `CON=C1C[C@@H](C(=O)NC[C@@H](O)c2ccccc2)N(C(=O)c2cccc(Oc3ccccc3)c2)C1` (racemic) [Example 278], the IC50 (usually the concentration that gives 50% inhibition) at hOT-R [1] came to 2300 nM.

Consider `CON=C1C[C@@H](C(=O)NC[C@@H](O)c2ccccc2)N(C(=O)c2ccc(-c3ccccc3Cl)cc2)C1` [Example 438, (2S,4EZ)-N-[(2S)-2-hydroxy-2-phenylethyl]-4-(methoxyimino)-1-{[2′-chloro[1,1′-biphenyl]-4-yl]carbonyl}-2-pyrrolidinecarboxamide], for which the IC50 at hOT-R [1] worked out at 170 nM.

`CO/N=C1/C[C@@H](c2nc3ccccc3[nH]2)N(C(=O)c2ccc(-c3ccccc3)cc2)C1` [(3Z,5S)-5-(1H-benzimidazol-2-yl)-1-([1,1′-biphenyl]-4-ylcarbonyl)-3-pyrrolidinone O-methyloxime]: the IC50 at hOT-R [1] came out at 630 nM; on hOT-R [2], 400 nM.

Consider `CO/N=C1/C[C@@H](C(=O)NCCO)N(C(=O)c2ccc(-c3ccccc3)cc2)C1` [(2S,4Z)-1-([1,1′biphenyl]-4-ylcarbonyl)-N-(2-hydroxyethyl)-4-(methoxyimino)-2-pyrrolidinecarboxamide], for which the IC50 on hOT-R [2] was found to be 650 nM.

For the compound `CON=C1C[C@@H](C(=O)N2CCC(O)CC2)N(C(=O)c2ccc(-c3ccccc3C)cc2)C1` [Example 372, (3EZ,5S)-5-[(4-hydroxy-1-piperidinyl)carbonyl]-1-[(2′-methyl[1,1′-biphenyl]-4-yl)carbonyl]-3-pyrrolidinone O-methyloxime], at hOT-R [1], the IC50 amounted to 300 nM.

Turning to `CON=C1C[C@@H](C(=O)NCCC(N)=O)N(C(=O)c2ccc(-c3ccccc3C)cc2C)C1` [Example 410, (2S,4EZ)-N-(3-amino-3-oxopropyl)-1-[(2′,3-dimethyl[1,1′-biphenyl]-4-yl)carbonyl]-4-(methoxyimino)-2-prrolidinecarboxamide], the IC50 on hOT-R [1] is 540 nM.

With `CON=C1C[C@@H](C(=O)NCCCO)N(C(=O)c2ccc(-c3ccccc3C)cc2)C1` [Example 377, (2S,4EZ)-N-(3-hydroxypropyl)-4-(methoxyimino)-1-[(2′-methyl[1,1′-biphenyl]-4-yl)carbonyl]-2-pyrrolidinecarboxamide], at hOT-R [1], the IC50 is 370 nM.

With `CON=C1C[C@@H](C(=O)N[C@@H]2CCCC[C@H]2CO)N(C(=O)c2ccc(-c3ccccc3OC)cc2)C1` [Example 384, (2S,4EZ)-N-[(1R,2R)-2-(hydroxymethyl)cyclohexyl]-1-[(2′-methoxy[1,1′-biphenyl]-4-yl)carbonyl]-4-(methoxyimino)-2-pyrrolidinecarboxamide], the IC50 at hOT-R [1] was 550 nM.

Consider `O=C(NCC(O)c1ccccc1)[C@@H]1C/C(=C/Cl)CN1C(=O)c1ccc(-c2ccccc2)cc1` (mixture of isomers) [(2S,4Z)-1-([1,1′-biphenyl]-4-ylcarbonyl)-4-(chloromethylene)-N-[(2RS)-2-hydroxy-2-phenylethyl]-2-pyrrolidinecarboxamide], for which the IC50 at hOT-R [1] came to 350 nM.

As for `CO/N=C1\C[C@@H](C(=O)NC[C@@H](O)c2ccccc2)N(C(=O)c2ccc(-c3ccccc3C)cc2)C1` [drawing 17, (2S,4E)-N-[(2S)-2-hydroxy-2-phenylethyl]-4-(methoxyimino)-1-[(2′-methyl[1,1′-biphenyl]-4-yl)carbonyl]-2-pyrrolidinecarboxamide], the IC50 at hOT-R [1] came to 130 nM; on hOT-R [2] it was 70 nM.

For `CON=C1C[C@@H](C(=O)NCC[C@@H](O)c2ccccc2)N(C(=O)c2ccc(-c3ccccc3C)cc2)C1` [Example 433, (2S,4EZ)-N-[(3R)-3-hydroxy-3-phenylpropyl]-4-(methoxyimino)-1-[(2′-methyl[1,1′-biphenyl]-4-yl)carbonyl]-2-pyrrolidinecarboxamide], the IC50 on hOT-R [2] is 320 nM.

`CO/N=C1/C[C@@H](C(=O)NC[C@@H](O)c2ccccc2)N(C(=O)c2ccc(-c3ccccc3C)cc2)C1` [drawing 18, (2S,4Z)-N-[(2S)-2-hydroxy-2-phenylethyl]-4-(methoxyimino)-1-[(2′-methyl[1,1′-biphenyl]-4-yl)carbonyl]-2-pyrrolidinecarboxamide]: the “% Reduction of Utenne Contraction” value in assay [3] (dose 0.3 mg/kg) was −23.8 ± 4.1%; in assay [3] (dose 1 mg/kg), −27.6 ± 4.6%; in assay [3] (dose 3 mg/kg), −50.4 ± 5.8%; in assay [3] (dose 10 mg/kg), −65.6 ± 6.4%; in assay [3] (dose 30 mg/kg) it was −76.5 ± 4.24%. Moreover, the IC50 at hOT-R [1] turned out to be 70 nM; at hOT-R [2] it was 30 nM.
